Reference: patent publication US20180086789A1, “PHARMACEUTICAL COMPOUND” (VALLAURIX PTE. LTD., priority 2015, published 2018)
Non-standard residues stand in square brackets, D forms with d. hArg = N=C(N)NCCCC[C@H](N)C(=O)O; Nle = CCCC[C@H](N)C(=O)O

Key:
MC1R = biological target: T1, MC1R (Homo sapiens, UniProt Q01726); test: Effects on cAMP in human melanocyte culture 1753 (radioimmunoassay); format: cell-based
T1 construct: human melanocyte culture coded 1753 that expressed functional MC1R; endogenous in cells; host or cells: human melanocyte culture coded 1753
T1 sequence (Q01726 whole entry): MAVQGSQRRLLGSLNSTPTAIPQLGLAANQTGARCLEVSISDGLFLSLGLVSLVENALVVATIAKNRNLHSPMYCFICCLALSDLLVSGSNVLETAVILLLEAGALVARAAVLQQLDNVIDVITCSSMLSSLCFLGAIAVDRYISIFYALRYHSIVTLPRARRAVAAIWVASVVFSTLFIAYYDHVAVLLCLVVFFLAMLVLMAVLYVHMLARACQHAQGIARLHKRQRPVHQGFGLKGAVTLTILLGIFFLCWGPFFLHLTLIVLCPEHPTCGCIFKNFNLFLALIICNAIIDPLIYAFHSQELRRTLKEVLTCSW
Protocol: The compound with formula structure Ac-Nle-Glu-His-D-Phe-homoArg-Trp-NH2 of the invention was tested using human melanocyte culture coded 1753 that expressed functional MC1R. The melanocytes were plated at a density of 0.3*10^6 cells/well. After 48 hours, the melanocytes were treated with different compound concentrations (10^−12 to 10^−7 M) for 1 hour. A control without compound was included in the test. […] The reaction was stopped by addition of 50 μl 1 N HCl and the supernatant in each well was used to measure cAMP using a radioimmunoassay as described by Suzuki 1996 (Suzuki I, Cone R D, Im S, Nordlund J J, Abdel-Malek Z: “Binding of melanotropic hormones to the MC1 receptor on human melanocytes stimulates proliferation and melanogenesis”. Endocrinology 137: 1627-1633, 1996). Duplicate samples from each well were assayed with triplicate wells included in each group. The mean of 6 cAMP measurements per group was expressed as % of the control group. Statistical analysis was carried out using ANOVA followed by Newman Kuels test. In some cases, unpaired t-test was used.

tyrosinase = test: Effects on tyrosinase activity in human melanocyte culture 1750 (3H-labeled tyrosine); format: cell-based
Protocol: The compound with formula structure Ac-Nle-Glu-His-D-Phe-homoArg-Trp-NH2 of the invention was tested using human melanocyte culture coded 1750 that expressed functional MC1R. The melanocytes were plated at a density of 0.3*10^6 cells onto 60 mm dishes (triplicate dishes/group). After 48 hours, the melanocytes were treated every other day for a total of six days with different doses (10^−12 M to 10^−7 M) of the compound. A control without compound was included in the test. […] On treatment day 5, ^3H-labeled tyrosine, the substrate for tyrosinase, was added and 24 hours later, the supernatant was saved to be assayed for tyrosinase activity as described by Suzuki et al (see example 2). Duplicate samples from each were assayed, with triplicate dishes included in each group. Cell number in each dish was counted, and tyrosinase activity was expressed as dpm/10^6 cells and as % of the control. Statistical analysis was carried out using ANOVA followed by Newman Kuels test.
It will be understood that this tyrosinase activation test relates to a late event after MC1R activation, compared to the earlier secondary messenger effect of the above cAMP test. As pointed out above, activity of tyrosinase requires days of treatment.

[1] = concentrations from 10^−10 M to 10^−7M

Ac-[Nle]EH[dF][hArg]W-NH2 [compound of the invention]
cAMP, highest efficacy, expressed as % of the control group (MC1R; 10^−7M, 1 hour treatment, human melanocyte culture 1753 expressing functional MC1R): 216%
cAMP results statistically different compared to the control (p<0.05) (MC1R; [1]): statistically different compared to the control
tyrosinase activity, highest efficacy, % of the control (tyrosinase; 10^−8 M, six days of treatment, human melanocyte culture 1750 expressing functional MC1R): 227%
tyrosinase activity, efficacy, % of the control (tyrosinase; 10^−9 M, six days of treatment, human melanocyte culture 1750 expressing functional MC1R): 198%
tyrosinase activity results statistically different compared to the control (p<0.05) (tyrosinase; [1]): statistically different compared to the control
